The record followed here is patent US8648035B2 (priority 2007, dated 2014).

The test system of assay [1] is E. coli cell-free transcription-translation system. Type of assay: biochemical. The note with it: for pIC50: read-out: IC50 for inhibition of protein synthesis (firefly luciferase).
Assay [2] has the same test system. Type of assay: biochemical. The conditions noted are these: bacterial system.

pIC50: −log10 of the molar value.

As to AGAAMSH [BLS15], in assay [1], the “inhibition of synthesis of GFP” value was “shown to inhibit synthesis of GFP” and the pIC50 is 4.82. In assay [2] (combination with streptomycin or other related antibiotics), the “combination effect with antibiotic on inhibition of protein synthesis” value was “synergistic action”. For the same substance, the “increase of potency in inhibiting protein synthesis” value in assay [2] (in the presence of 3 μM streptomycin) turned out to be 25 fold.
Turning to AMSAPIP [BLS18], the pIC50 in assay [1] was 3.86.
As for SILPYPY [BLS26], the “stimulation of protein synthesis (luciferase)” value in assay [1] was 20%.
For the substance SYPDLHL [BLS25], the “stimulation of protein synthesis (luciferase)” value in assay [1] was found to be 20%.

The pIC50 is −log10 of the IC50, conventionally taken in molar units.
